Our source for the cytotoxicity values is ChEMBL document CHEMBL3507680, “University of Dundee, Gates Library screen for HepG2 cell viability”.

A short description of the data set: Human HepG2 cell viability assay in 384 well format. It is filed as toxicity, cell-based. The note with it: HepG2 cells, read-out: Inhibition. On the set-up: dose 125 nL, time 70.5 hour; cytotoxicity at 70.5 h: concentration not given beside the values.
As for `COCCN(Cc1ccccc1)C(=O)c1csc(-c2nnc[nH]2)n1`, the cytotoxicity at 70.5 h was -5.25%.

Regarding `CC1CCCCN1C(=O)c1ccc(=O)[nH]n1` (stereo not given), the cytotoxicity at 70.5 h was -5.98%.

As for `CCc1nnsc1C(=O)N(C)Cc1nnc2n1CCC2`, the cytotoxicity at 70.5 h worked out at 5.35%.

As to `O=C(O)c1cc(NS(=O)(=O)c2ccccc2F)ccc1N1CCSCC1`, the cytotoxicity at 70.5 h was -8.7%.

In the case of `Cc1cccc(CS(=O)(=O)CC(O)Cn2cccn2)c1` (stereo not given), the cytotoxicity at 70.5 h was -4.24%.

For the compound `CC(C)c1nc(CS(=O)(=O)Cc2noc(C3CC3)n2)cs1`, the cytotoxicity at 70.5 h was -13.6%.

Take `CN1CCN(c2ccccc2CNC(=O)Cc2ccccc2F)CC1`: the cytotoxicity at 70.5 h is -5.79%.

With `N#CCCSc1nnc(Cc2ccccc2F)o1`, the cytotoxicity at 70.5 h was -3.12%.

For the compound `CCNC(=O)Nc1ccc(N2CCC(OC)CC2)c(C(F)(F)F)c1`, the cytotoxicity at 70.5 h was -1.82%.

For `Fc1ccc(-c2noc(C3COCCO3)n2)cc1F` (stereo not given), the cytotoxicity at 70.5 h was -1.66%.

For the compound `CCc1cc(N2CCC(Nc3ccc(Cl)cn3)CC2)ncn1`, the cytotoxicity at 70.5 h is 12.5%.

For `CC(C)(C)c1cc(NC(=O)NCCc2nnc3n2CCC3)c(C#N)s1`, the cytotoxicity at 70.5 h came out at 8.88%.

For `Cc1ccc(Br)cc1NC(=O)NCC(O)CO` (stereo not given), the cytotoxicity at 70.5 h came out at 3.24%.

Consider `CC(C)c1cc(Br)ccc1NC(=O)NCC(O)CO` (stereo not given), for which the cytotoxicity at 70.5 h is -3.27%.

Regarding `CS(=O)(=O)CCSc1nnc(Cc2ccccc2F)o1`, the cytotoxicity at 70.5 h is -1.57%.

`COc1ccc(C(C)NCc2cccs2)cc1Cn1cccn1` (stereo not given): the cytotoxicity at 70.5 h came to 15.6%.

Turning to `COCC(=O)Nc1ccc(N2CCC(OC)CC2)c(C(F)(F)F)c1`, the cytotoxicity at 70.5 h was -0.835%.

Take `CCc1nc(CN2CCCN(Cc3noc(C4CC4)n3)CC2)cs1`: the cytotoxicity at 70.5 h was -0.776%.

For `Cc1cnn(CC(C)NCc2ccc(C#N)cc2)c1` (stereo not given), the cytotoxicity at 70.5 h is 0.599%.

As for `COc1cccc(OCC(=O)N2CCOc3ccncc32)c1`, the cytotoxicity at 70.5 h is 13.2%.

With `Cc1nc(CN(Cc2ccccc2F)C2CCC2)no1`, the cytotoxicity at 70.5 h was -3.66%.

As to `CCN(C(=O)Cn1cc(Cl)cn1)c1ccccc1`, the cytotoxicity at 70.5 h is 5.93%.

Regarding `CC(C)N1CCCC(CNC(=O)CN(C)S(=O)(=O)c2ccccc2)C1` (stereo not given), the cytotoxicity at 70.5 h was -5.65%.

As for `Cc1ccccc1SCC(=O)NC1CCC(O)CC1` (stereo not given), the cytotoxicity at 70.5 h was found to be 7.04%.

`O=C1NCC(C(=O)NCc2ccccc2CN2CCOCC2)N1` (stereo not given): the cytotoxicity at 70.5 h was -4.6%.

With `O=C(COCc1ccccc1)NCc1ccc(O)c(F)c1`, the cytotoxicity at 70.5 h was -0.734%.

In the case of `CN1CCN(CCOc2ccc(NC(=O)c3ccncc3)cc2)CC1`, the cytotoxicity at 70.5 h was -3.29%.

For `COc1ncccc1N(C)C(=O)Cn1cc(-c2ccccc2)nn1`, the cytotoxicity at 70.5 h is -4.75%.

For `CC(C)c1noc(CN2CCN(C(=O)OC(C)(C)C)C(C)C2)n1` (stereo not given), the cytotoxicity at 70.5 h was determined as 7.76%.

For `CCc1ccc(C(=O)NCC2CCCN2CC)o1` (stereo not given), the cytotoxicity at 70.5 h was -3.5%.

As for `Cc1cc(CN(C)C(=O)CC(C)C)no1`, the cytotoxicity at 70.5 h is -2.9%.

Turning to `CC(=O)N1CCCN(C(=O)NC(C)Cn2ccnc2)CC1` (stereo not given), the cytotoxicity at 70.5 h was -4.31%.

As for `CC(=O)N1CCN(CCNC(=O)NC(C)Cn2ccnc2)CC1` (stereo not given), the cytotoxicity at 70.5 h was -2.74%.

On to `COc1ccccc1CC(C)CC(=O)N(C)Cc1cc(C)on1` (stereo not given), for which the cytotoxicity at 70.5 h came out at 2.26%.

Consider `COc1ccc(CN(C)C(=O)CN2CC(n3cccn3)C2)cc1F`, for which the cytotoxicity at 70.5 h was -0.231%.

On to `COc1ccccc1CC(=O)N(C)Cc1cc(C)on1`, for which the cytotoxicity at 70.5 h is -3.86%.

In the case of `N#Cc1cccnc1NCCNC(=O)NCCSC(F)(F)F`, the cytotoxicity at 70.5 h is -10.1%.

As to `CC(=O)N1CCN(C(=O)c2sccc2Br)CC1`, the cytotoxicity at 70.5 h was determined as 15.1%.

With `CN(CC(=O)NCCC#N)C(c1ccccc1)c1ccc(F)cc1` (stereo not given), the cytotoxicity at 70.5 h was -15.7%.

`Cc1n[nH]c(C)c1CNCC(O)c1ccc(F)c(F)c1` (stereo not given): the cytotoxicity at 70.5 h is -3.32%.

As for `CC(C)N(CC(N)=O)Cc1c(Cl)ccc2cccnc12`, the cytotoxicity at 70.5 h is -8.03%.

For the compound `COC(=O)c1ccc(N2CCN(Cc3csc(C)n3)CC2)nn1`, the cytotoxicity at 70.5 h was -14.7%.

Consider `CCOCCCC(=O)Nc1ccc(OCc2noc(C3CC3)n2)cc1`, for which the cytotoxicity at 70.5 h worked out at 7.14%.

Regarding `CCOCCNC(=O)Nc1ccc(OCc2noc(C3CC3)n2)cc1`, the cytotoxicity at 70.5 h is -7.9%.

For `COCCCNC(=O)Nc1ccc(OCc2noc(C3CC3)n2)cc1`, the cytotoxicity at 70.5 h is -11.8%.

On to `O=C(Cc1ccccc1Br)NCC(=O)Nc1cn[nH]c1`, for which the cytotoxicity at 70.5 h was -6.36%.

With `O=C(Cc1ccc(Br)s1)NCC(=O)Nc1cn[nH]c1`, the cytotoxicity at 70.5 h is -9.18%.

Take `N#CC1COCCN1S(=O)(=O)c1ccc(F)c(Br)c1` (stereo not given): the cytotoxicity at 70.5 h is -9.56%.

Consider `CN(C)c1cccc(C2CCCN2c2nc3c(cnn3C)c(=O)[nH]2)c1` (stereo not given), for which the cytotoxicity at 70.5 h stood at 15.4%.

Take `CC(C)Cn1cc(NC(=O)NC(C)(C)c2nccs2)cn1`: the cytotoxicity at 70.5 h was -6.56%.

In the case of `CC(C)(NC(=O)Nc1cnn(CC2CCCO2)c1)c1nccs1` (stereo not given), the cytotoxicity at 70.5 h is -6.03%.

`CN(Cc1c(Cl)ccc2cccnc12)CC(C)(CO)CO`: the cytotoxicity at 70.5 h was -10.4%.

Take `c1cc(CCn2ccc(NC3CCSCC3)n2)ccn1`: the cytotoxicity at 70.5 h was -3.19%.

Turning to `Cc1ncc(C(=O)Nc2cncnc2N(C)C)c(Cl)c1Cl`, the cytotoxicity at 70.5 h is -9.76%.

`CC(NCCc1nccn1Cc1ccccc1)c1ccsc1` (stereo not given): the cytotoxicity at 70.5 h was -10.7%.

As to `CC(C)CCn1ccc(NC2CCSC2)n1` (stereo not given), the cytotoxicity at 70.5 h was -8.47%.

For `Cc1nn(-c2ccc(F)cc2)c2[nH]nc(N)c12`, the cytotoxicity at 70.5 h turned out to be 8.73%.

Turning to `NC(=O)c1ccnc(N2CCN(Cc3ccc(F)cc3Cl)CC2)c1`, the cytotoxicity at 70.5 h was -15.2%.

Consider `CCOc1ccc(Cl)c(C(=O)NC(C(N)=O)c2ccccc2)n1` (stereo not given), for which the cytotoxicity at 70.5 h amounted to 14.2%.

`Cc1cc(S(C)(=O)=O)c(C)c(S(=O)(=O)NC2CCCC2)c1`: the cytotoxicity at 70.5 h was -8.42%.

On to `Cc1nnc(CN2CCN(Cc3nccn3C)CC2)n1C`, for which the cytotoxicity at 70.5 h was -8.45%.

Consider `Cc1cc(NC(=O)N2CCN(C)CC2C)n(CCC#N)n1` (stereo not given), for which the cytotoxicity at 70.5 h was found to be 18.4%.

Take `Cc1cc(NC(=O)N2CCN(C)CC2C)n(C)n1` (stereo not given): the cytotoxicity at 70.5 h was -6.62%.

For `Cc1[nH]n(-c2ccccc2)c2nnc(N)c1-2`, the cytotoxicity at 70.5 h is -2.04%.

Consider `CSc1ccsc1C(=O)NC(Cc1ccccc1)C(N)=O` (stereo not given), for which the cytotoxicity at 70.5 h was -1.87%.

Turning to `CN(CCN1CCN(c2ccccc2)CC1)C(=O)Nc1ccccn1`, the cytotoxicity at 70.5 h was 17.7%.

For the compound `Cc1ccc(CNC(=O)N(C)Cc2ccc([S+](C)[O-])cc2)s1` (stereo not given), the cytotoxicity at 70.5 h is -6.72%.

`COC(=O)c1cccc(CNC(=O)CC(F)(F)F)c1`: the cytotoxicity at 70.5 h was -5.17%.

Consider `OC1(CNCc2ccc(F)c(C(F)(F)F)c2)CCOC1` (stereo not given), for which the cytotoxicity at 70.5 h was -2.64%.

On to `COc1cccc(Cn2cccc(C#N)c2=O)c1`, for which the cytotoxicity at 70.5 h is -7%.

As to `CCc1cccc(OCCn2cccc(C#N)c2=O)c1`, the cytotoxicity at 70.5 h was -8.55%.

On to `CCc1nnc(SCC(=O)Nc2cc(C(C)(C)C)nn2C)[nH]1`, for which the cytotoxicity at 70.5 h was -5.12%.

For the compound `CCc1ocnc1C(=O)N1CCC2(CC1)OCC(C)O2` (stereo not given), the cytotoxicity at 70.5 h is -5.57%.

For `Cc1csc(CNC(=O)N(C)Cc2ccc([S+](C)[O-])cc2)n1` (stereo not given), the cytotoxicity at 70.5 h is -5.11%.

Consider `COc1ccc(-c2nnc(C(C)N3CCC4(CC3)OCCO4)o2)cc1` (stereo not given), for which the cytotoxicity at 70.5 h was -10.3%.

For `O=C(NCC(O)COc1cccc(F)c1)C1(c2ccc(F)cc2)CC1` (stereo not given), the cytotoxicity at 70.5 h was -12%.

Turning to `Cc1cccc(CN(Cn2nc(C)c3c(C)onc3c2=O)C2CC2)c1`, the cytotoxicity at 70.5 h was -13.7%.

As to `CNC(=O)c1cccc(NC(=O)NCc2ccc(SC)cc2)c1C`, the cytotoxicity at 70.5 h was -7.01%.

As to `Cc1cnn(C2CN(c3nc(C)cc(N(C)C)n3)C2)c1`, the cytotoxicity at 70.5 h stood at 0.987%.

On to `NC(=O)C1CN(Cc2c(O)ccc3oc4c(c23)CCCC4)CCO1` (stereo not given), for which the cytotoxicity at 70.5 h is -5.87%.

With `Cc1ccc(CCNC(=O)NCc2cccc(OC(F)F)c2)cn1`, the cytotoxicity at 70.5 h was -8.89%.

As for `COc1cc2nc(NCc3cc(C)on3)nc(N)c2cc1OC`, the cytotoxicity at 70.5 h worked out at 34.1%.

On to `CCOc1ccc(NC(=O)NC2CCc3nc(C)nn3C2)cc1Cl` (stereo not given), for which the cytotoxicity at 70.5 h was -2.45%.

`CCc1ccc(C2COCCN2C(=O)Nc2cccc(C(C)=O)c2)o1` (stereo not given): the cytotoxicity at 70.5 h was -1.25%.

As for `Cc1nonc1NC(=O)C1SCCc2ccccc21` (stereo not given), the cytotoxicity at 70.5 h was 2.97%.

For `CCc1ccc(C2COCCN2C(=O)Nc2cc(C)on2)o1` (stereo not given), the cytotoxicity at 70.5 h was -3.5%.

As to `NC(=O)CN1CCC(NC2CCCCc3ccccc32)CC1` (stereo not given), the cytotoxicity at 70.5 h was determined as 5.24%.

Consider `OCCNC1CSCCc2ccccc21` (stereo not given), for which the cytotoxicity at 70.5 h was found to be 33.4%.

Turning to `O=C(NCc1cc(Cl)ccn1)NCc1ccco1`, the cytotoxicity at 70.5 h is 13.9%.

As to `CS(=O)(=O)NCCNC(=O)NC1(c2ccc(Cl)cc2)CCC1`, the cytotoxicity at 70.5 h turned out to be 16.5%.

In the case of `Cc1nn(CN(Cc2ccsc2)C2CC2)c(=O)c2noc(C)c12`, the cytotoxicity at 70.5 h is -8.61%.

Regarding `OCCOc1ccc(NCc2cccnc2)cn1`, the cytotoxicity at 70.5 h was 24.6%.

Regarding `CCCNC(=O)CCNC1CSCCc2ccccc21` (stereo not given), the cytotoxicity at 70.5 h is -2.78%.

On to `CCS(=O)(=O)NCCCNC1CSCCc2ccccc21` (stereo not given), for which the cytotoxicity at 70.5 h is -7.41%.

As for `COCc1nccc(C2CCCN(Cc3cccc(C#N)c3)C2)n1` (stereo not given), the cytotoxicity at 70.5 h was -9.48%.

In the case of `N#Cc1ccc(S(=O)(=O)NCCn2ccnc2)cc1Cl`, the cytotoxicity at 70.5 h is -0.547%.

On to `O=C(NCc1ccccc1CN1CCCC1)Nc1nncs1`, for which the cytotoxicity at 70.5 h was determined as 3.29%.

For the compound `Cn1c(=O)ccn(CC(=O)Nc2cnccc2O)c1=O`, the cytotoxicity at 70.5 h was -4.1%.

On to `CC(Cn1ccnc1)NS(=O)(=O)c1ccc(C#N)c(Cl)c1` (stereo not given), for which the cytotoxicity at 70.5 h is -9.17%.

For the compound `CC(C)(C(=O)NCc1ccccc1F)n1cc(Br)cn1`, the cytotoxicity at 70.5 h is -6.29%.

`NC(=O)c1ccc(C(=O)N2CCCCC2C2OCCO2)cc1` (stereo not given): the cytotoxicity at 70.5 h was -10.6%.

In the case of `CN(C1CCN(c2ccccn2)CC1)S(=O)(=O)c1cccs1`, the cytotoxicity at 70.5 h was -8.7%.

For the compound `Cn1c(=O)ccn(CC(=O)Nc2cccnc2)c1=O`, the cytotoxicity at 70.5 h came out at 12.6%.

On to `Cc1nn(C)c(N(C)C)c1CNCc1ccnn1C`, for which the cytotoxicity at 70.5 h is -5.03%.

Consider `Cc1cnc(CN2CCN(C(C)c3nc(C(C)C)no3)CC2)cn1` (stereo not given), for which the cytotoxicity at 70.5 h is -6.56%.
